Measurements from patent US12539284B2, “Aminoxy acid-based anti-cancer stem cell compounds and methods thereof” (Westlake University, priority 2019, dated 2026).
“Also recorded” adds a separate entry of the source. Like-named read-outs stand apart in the source and are kept apart here.

Tests used:
SKOV3 cancer cells = test: Cell viability (CellTiter-Glo) on adherent SKOV3 cancer cells; type: cell-based, human
Method: (§1) Cell Cultures Human ovarian carcinoma cell lines HEY A8 and SKOV3 were gifts from Professor Alice Wong's group (The University of Hong Kong). Cells were grown in Dulbecco's Modified Eagle (DMEM) medium supplemented with 10% FBS and 1% penicillin/streptomycin at 37° C. in a humidified atmosphere containing […] CO2. Isolation and culture of spheres were performed in serum-free stem-cell-selective condition as described in literature Ip etl. Oncogene 2014, 5, 9133-9149. Briefly, 1-2 weeks after plating, non-adherent spherical clusters of cells could be observed and were separated from single cells by low speed centrifugation. After 8th to 10th passages, the non-adherent spherical clusters of cells appeared as distinct spheres. Using this selection condition, HEY A8 spheres (HEY A8 SP) or SKOV3 spheres (SKOV3 SP) could be enzymatically dissociated and reformed into spheres within 3 days under stem-cell-selective condition. To allow differentiation, dissociated sphere cells were plated on tissue culture plates in medium (MCDB 105:M199=1:1) supplemented with 10% FBS and 1% PS.
HEY A8 or SKOV3 cancer Cells were plated in triplicate in 0.1 mL full medium in 96-well plates for 24 h. After that, the medium was changed to the fresh prepared medium with various concentrations of compounds. Cells were incubated for another 48 h. Then the cell viability was measured by CellTiter-Glo® Luminescent Cell Viability reagent according to the manufacture's instruction. The luminescence at 550 nm was measured using a microplate reader (SpectraMax 340PC 384, Molecular Devices).

HEY A8 cancer cells = test: Apoptosis, Annexin V / PI flow cytometry, cancer cells; type: cell-based, human; settings: 30 μM, 2 days
Method: A suspension of HEY A8 cells at the concentration of 5×10^4 cells/mL in DMEM medium were seeded into 60-mm cell culture dishes. Cells were incubated at 37° C. in a humidified atmosphere containing 5% CO2 for 24 h followed by the addition of 4 mL fresh medium or medium containing compound sff-2-112 (“Example 1”) or sff-2-132 (“Example 4”) at different concentration. […] After 2 days, the medium was aspirated and cells were washed with cold PBS twice, and then stained with PI and Annexin V according to the manufacture's instruction (Dead Cell Apoptosis Kit with Annexin V Alexa Fluor™ 488 & Propidium Iodide, Thermo Fisher). Cells were analyzed by flow cytometry (BD FACS CantoII Analyzer).

NIH3T3 = test: Toxicity against normal cell line NIH3T3; type: cell-based
Description: Fourteen compounds including aminoxy acid monomers and dipeptides have been identified to show toxicity against HEY A8 CSCs. The half maximal inhibitory concentration (IC50) values of compounds sff-2-112, sff-2-124, sff-2-132 and sff-2-100 towards adherent cancer HEY A8, SKOV3 cells and CSCs were further determined. […] Especially compound sff-2-132, its selectivity to CSCs is up to 60-fold higher than that to cancer cells. Their toxicity against other normal cell lines NIH3T3, HEK293 and MDCK were also tested and the IC50 values were summarized in Table 1.

HEY A8 CSCs (HEY A8 SP) = test: Toxicity / cell viability (CellTiter-Glo) on HEY A8 spheres (CSCs); type: cell-based, human; settings: for rank of toxicity among the 14 molecules on HEY A8 CSCs: 5 μM; for rank of toxicity among the 14 molecules on HEY A8 CSCs / cell viability of HEY A8 CSCs (toxicity): 48 h; for IC50: HEY A8 spheres, 48 h incubation, read-out: IC50 Cancer Stem Cell HeyA8 SP; for cell viability of HEY A8 CSCs (toxicity): compound 5 μM; for selectivity towards ovarian CSCs over ovarian cancer cells and normal cells: from IC50 values, FIG. 4 and Table 1
Method: Aminoxy acids were synthesized by the standard peptide coupling procedures. The CSCs are obtained by spheroids culturing under suspension condition. It is confirmed that these spheres indeed contain significant higher population of cells with CD133 antigenic phenotype, which has been reported can represent ovarian CSCs (FIG. 2). After treatment with compounds for 48 h, the cell viability of CSCs was measured by using CELLTITER-GLO® luminescent reagent. Compound sff-3-85 (“Example 2”) were used at the dose of 10 μM, all the other compounds were used at the concentration of 5 μM. All experiments were performed three times and data is presented as mean±SD.
as §1
(§2) HEY A8 SP cells (5×10^4) were plated in triplicate in 10 mL serum-free MCDB105 medium in 100-mm Petri dish for 7 days to form spheres. Compound at the final concentration of 5 μM was added. The cells were further incubated at 37° C. for 48 h. After that cells were collected by centrifugation and the medium was removed. Then 100 μL CellTiter-Glo® Luminescent Cell Viability reagent was added into each tube, which was incubated for 10 min with shaking. After that, the reagent was transferred into 96-well plates and cell viability was measured using a microplate reader (SpectraMax 340PC 384, Molecular Devices).
as §2, with “A8 SP cells or SKOV3” for “A8”, “Then drugs” for “Compound”, “different” for “the final”, “were” for “of 5 μM was”, “μL of” for “μL”

HEY A8 cells [1] = test: Mitochondrial membrane potential (JC-1 red to green ratio); type: cell-based, human; settings: for mitochondrial membrane potential, kinetic study: 10 μM added at 180 s, image interval 30 s; for mitochondrial membrane potential depolarization: treated 10 min, FIG. 8a
Method: A suspension of HEY A8 cells at the concentration of 5×10^4 cells/mL in DMEM medium were seeded into 30-mm cell culture dishes with glass bottom (MatTek). Cells were incubated at 37° C. in a humidified atmosphere containing 5% CO2 for 24 h. Medium was aspirated and cells was washed with PBS buffer twice. Then 1 mL HBSS buffer containing 2.5 μM JC-1 was added. Cells were incubated at 37° C. for 20 min before the buffer was aspirated. Cells were washed with PBS buffer twice and treated with cation transporters for 10 min. Fluorescence was monitored by confocal imaging with ZEISS LSM 780 (Red channel: λex=543 nm, Green channel: λex=488 nm). Quantitative data were obtained using the ZEN and Graph Pad Prism software packages.
The Kinetic study of this compound on the MMP in HEY A8 cells was also conducted. Compound sff-2-112 (“Example 1”) or sff-2-132 (“Example 4”) at the final concentration of 10 μM was added at 180 s. The interval for each image was 30 s. The decrease in red to green fluorescence ratio of JC-1 indicates MMP depolarization.

HEY A8 cells [2] = test: Sphere formation in suspension culture after treatment; type: cell-based, human; settings: 15 or 30 μM for 48 h, 3 days recovery, 5 days sphere formation
Method: Hey A8 cells were treated with compounds DMSO sff-2-112 (“Example 1”) or sff-2-132 (“Example 4”) at the concentration of 15 or 30 μM for 48 h. Then cells were allowed to recover and grow in full medium in cell culture dishes for 3 days. After that, cells at the density of 5×10^4 cells/mL were transferred into low attachment dishes for 5 days to allow sphere formation. The number of spheres in each dish were counted.

O=C(NO[C@H](COCc1ccccc1)C(=O)Nc1ccccc1)c1cc(C(F)(F)F)cc(C(F)(F)F)c1 [sff-2-112]
IC50 (SKOV3 cancer cells; 48 h incubation): 42.1 ± 5.2 µM
Annexin V positive cells, cancer cells (HEY A8 cancer cells): 8.21%
IC50 (NIH3T3): 30.5 ± 1.1 µM
rank of toxicity among the 14 molecules on HEY A8 CSCs (HEY A8 CSCs (HEY A8 SP)): highest toxicity
IC50 (HEY A8 CSCs (HEY A8 SP)): 1.5 ± 1.3 µM
cell viability of HEY A8 CSCs (toxicity) (HEY A8 CSCs (HEY A8 SP)): significantly decreased the cell viability
selectivity towards ovarian CSCs over ovarian cancer cells and normal cells (HEY A8 CSCs (HEY A8 SP)): selectively induce the death of ovarian CSCs
mitochondrial membrane potential, kinetic study (HEY A8 cells [1]): MMP depolarized immediately
mitochondrial membrane potential depolarization (HEY A8 cells [1]): effectively depolarize mitochondrial membrane potential (MMP) of HEY A8 cells in a dose dependent manner
sphere forming ability / number of spheres relative to controls (HEY A8 cells [2]): significant decrease in the number of spheres; also recorded: significantly reduced sphere forming ability

CC(C)(C)OC(=O)[C@@H](COCc1ccccc1)ONC(=O)c1cc(C(F)(F)F)cc(C(F)(F)F)c1 [sff-2-132]
IC50 (SKOV3 cancer cells; Homo sapiens, SK-OV-3, 48 h incubation): 63.4 ± 8.9 µM
Annexin V positive cells, cancer cells (HEY A8 cancer cells): 1.30%
IC50 (NIH3T3; Mus musculus, NIH3T3): 58 ± 2.2 µM
rank of toxicity among the 14 molecules on HEY A8 CSCs (HEY A8 CSCs (HEY A8 SP)): highest toxicity
IC50 (HEY A8 CSCs (HEY A8 SP); Homo sapiens): 1 ± 0.9 µM
cell viability of HEY A8 CSCs (toxicity) (HEY A8 CSCs (HEY A8 SP)): significantly decreased the cell viability
selectivity towards ovarian CSCs over ovarian cancer cells and normal cells (HEY A8 CSCs (HEY A8 SP)): best selectivity; also recorded: selectively induce the death of ovarian CSCs
selectivity to CSCs over cancer cells (HEY A8 CSCs (HEY A8 SP); ovarian CSCs vs adherent cancer cells (and normal cells)): up to 60 fold
mitochondrial membrane potential, kinetic study (HEY A8 cells [1]): MMP depolarized immediately
mitochondrial membrane potential depolarization (HEY A8 cells [1]): effectively depolarize mitochondrial membrane potential (MMP) of HEY A8 cells in a dose dependent manner
sphere forming ability / number of spheres relative to controls (HEY A8 cells [2]): significant decrease in the number of spheres; also recorded: significantly reduced sphere forming ability
